The text below walks through data of patent publication US20250034089A1, “TETRAHYDROCARBAZOLE COMPOUND, AND PHARMACEUTICAL COMPOSITION AND USE THEREOF” (NAIN BIOTECH (HANGZHOU) CO., LTD., priority 2021, published 2025).

One assay has as its system HeLa (human cervical cancer cells). Put plainly: In vitro proliferation inhibition (CCK-8), HeLa. Type of assay: cell-based. Conditions: Homo sapiens, 72 h, CCK-8, average of three wells in one test. From the text:
(§1) • 1) Cell sources: HeLa (human cervical cancer cells), CaSki (human cervical cancer intestinal metastasis cells), Huh7 (human liver cancer cells), HepG2 (human liver cancer cells), Hep3B (human liver cancer cells) were purchased from the Chinese Academy of Sciences cell bank (Shanghai); LO2 (human normal liver cells) and HcerEpic (human normal uterine epithelial cells) were from ATCC. • 2) Cell culture and passage: The cell culture and passage method is the same as that described in “The inhibitory effect of compounds on the OCT4 protein in tumor stem cells (CSC)”. • 3) Cell dosing treatment: The each type of cells mentioned above was digested, counted, and inoculated in each well of the 96 well cell culture plate (#3988, Corning) at a density of 5000 cells/200 μl culture medium. They were cultured in a cell culture incubator at 37° C. and 5% CO2 for 24 hours to allow the cells to fully adherent to the wall. Then, the original culture medium was replaced with complete culture medium containing gradient diluted KZT-A5 (each concentration with 3 repeated wells) as well as DMSO (#D5879, Sigma Aldrich) solvent control, and they are cultured for additional 72 hours. • 4) Pharmacodynamic test and statistics: First, the morphology of cells treated with the above compounds was observed, photographed and recorded using an inverted phase contrast microscope (X71, Olympus). Then the original culture medium was replaced with phenol red free culture medium containing CCK-8 detection reagent (#E606335, Shanghai Shenggong) respectively, and they are cultured in the incubator for additional 2 hours. Then the OD450 nm absorbance value (OD value) was measured on a multifunctional enzyme-linked immunosorbent assay (168-1130, Bio Rad). After the cells were treated with the test compound, the equations for calculating the cell survival rate or cell growth rate is: survival rate=GD value of the treated group/OD value of the control group×100%; the equations for calculating the growth inhibition rate of compounds on cell proliferation is: inhibition rate=(OD value of control group−OD value of the treated group)/OD value of control group×100%. Further, the IC50 of each compound was calculated in SPSS based on the inhibition rate.
(§2) • 1) Cell sources: Huh7 (human liver cancer cells), HepG2 (human liver cancer cells), Hep3B (human liver cancer cells), and HeLa (human cervical cancer cells) were all purchased from the Chinese Academy of Sciences cell bank (Shanghai), while LO2 (human normal liver cells) was obtained from ATCC. • 2) Cell culture and passage: The cell culture and passage method is the same as that described in “The inhibitory effect of compounds on human tumor cell lines from different tissue sources (1)”. • 3) Cell dosing treatment: The cell dosing treatment method is the same as that described in “The inhibitory effect of compounds on human tumor cell lines from different tissue sources (1). • 4) Pharmacodynamic test and statistics: The pharmacodynamic test and statistics method is the same as that described in “The inhibitory effect of compounds on human tumor cell lines from different tissue sources (1)”. The IC50 value data of the compound on each type of tumor cells is the average±standard deviation of three wells in one test.
As to `COc1cc(CC2CCc3c([nH]c4ccc(C)cc34)C2=O)ccc1O` (stereo not drawn) [Compound 8], the half-maximal inhibitory concentration (IC50) (usually the concentration that gives 50% inhibition) was under 50 µM.
`Cc1ccc2[nH]c3c(c2c1)CC/C(=C\c1c[nH]c2ncccc12)C3=O` [Compound 14] displayed an IC50 of under 50 µM.
`COc1cc(/C=C2\CCc3c([nH]c4cc(OC)c(OC)cc34)C2=O)ccc1O` [Compound 31] returned a half-inhibitory concentration (IC50) of under 50 µM.
Take `COc1cc(/C=C2\CCc3c([nH]c4ccc(N5CCC(O)CC5)cc34)C2=O)ccc1O` [Compound 22]: the half-inhibitory concentration (IC50) is under 50 µM.
On the same count and under the same terms, the value for `COc1cc(/C=C2\CCc3c([nH]c4c(Cl)cc(Cl)cc34)C2=O)ccc1O` [Compound 32] was under 50 µM; that for `COc1cc(/C=C2\CCc3c([nH]c4ccc(Br)cc34)C2=O)ccc1O` [Compound 19] was under 50 µM; that for `COc1cc(/C=C2\CCc3c([nH]c4ccc(F)cc34)C2=O)ccc1O` [Compound 27] was under 50 µM.
For the compound `C#Cc1ccc2[nH]c3c(c2c1)CC/C(=C\c1ccc(O)c(OC)c1)C3=O` [Compound 25], the IC50 is under 50 µM.
On the same count and under the same terms, as for `COc1cc(/C=C2\CCc3c([nH]c4ccc(-c5cn[nH]c5)cc34)C2=O)ccc1O` [Compound 24], the figure is under 50 µM; as for `COc1cc(/C=C2\CCc3c([nH]c4ccc(N5CCNCC5)cc34)C2=O)ccc1O` [Compound 23], under 50 µM; as for `COc1cc(/C=C2\CCc3c([nH]c4ccc(C#N)cc34)C2=O)ccc1O` [Compound 20], under 50 µM.
Compound `COC(=O)c1ccc2[nH]c3c(c2n1)CC/C(=C\c1ccc(O)c(OC)c1)C3=O` [Compound 28] yielded a half-maximal inhibitory concentration (IC50) of under 50 µM.
Consider `Cc1ccc2[nH]c3c(c2c1)CC/C(=C\c1ccnc2[nH]ccc12)C3=O` [Compound 16], for which the IC50 was under 50 µM.
On the same count and under the same terms, as for `COC(=O)c1ccc2[nH]c3c(c2c1)CC/C(=C\c1ccc(O)c(OC)c1)C3=O` [Compound 21], the figure is under 50 µM.
`COc1ccc2[nH]c3c(c2n1)CC/C(=C\c1ccc(O)c(OC)c1)C3=O` [Compound 33] registered a 50% inhibitory concentration (IC50) of under 50 µM.

The same assay, now with this note: Homo sapiens, 72 hours, CCK-8, average of three wells in one test.
In the case of `COc1cc(/C=C2\CC(C)(C)c3c([nH]c4ccc(C)cc34)C2=O)ccc1O` [Compound 34], the IC50 is under 50 µM.
On the same count and under the same terms, as for `COc1cc(/C=C2\CCc3c([nH]c4ccc(C)cc34)C2=O)cc(OC)c1OC` [Compound 38], the figure is under 50 µM; as for `COc1cc(/C=C2\CSc3c([nH]c4ccc(C)cc34)C2=O)ccc1O` [Compound 36], under 50 µM.
Regarding `COc1ccc2[nH]c3c(c2c1)CC/C(=C\c1ccc(O)c(OC)c1)C3=O` [Compound 18], the IC50 was under 50 µM.
Compound `COc1cc(/C=C2\CCCc3c([nH]c4ccc(C)cc34)C2=O)ccc1O` [Compound 37] had a concentration for half-maximal inhibition (IC50) of under 50 µM.
For `COc1cc(/C=C2\Cc3c([nH]c4ccc(C)cc34)C2=O)ccc1O` [Compound 35], the half-maximal inhibitory concentration (IC50) was under 50 µM.

Staying with this assay, now noted: Homo sapiens, test (2), average±standard deviation of three wells.
The compound `CCC(CO)/N=C1\CCCc2c1[nH]c1ccc(C)cc21` (stereo not drawn) [AH057, reference compound] displayed an IC50 of 0.63 ± 0.03 µM.

In another assay the test system is Huh7 (human liver cancer cells). Put plainly: In vitro proliferation inhibition (CCK-8), Huh7. Type of assay: cell-based. Conditions: Homo sapiens, Huh-7, Huh7, test (2), average±standard deviation of three wells.
Text: as §1, §2
As to `CCC(CO)/N=C1\CCCc2c1[nH]c1ccc(C)cc21` (stereo not drawn) [AH057, reference compound], the IC50 came out at 44.2 ± 1.61 µM.

For another assay, the system named is HepG2 (human liver cancer cells). Put plainly: In vitro proliferation inhibition (CCK-8), HepG2. Type of assay: cell-based. The note with it: Homo sapiens; HepG2, test (2), average±standard deviation of three wells. From the text:
(§3) • 1) Cell sources: HeLa (human cervical cancer cells), CaSki (human cervical cancer intestinal metastasis cells), Huh7 (human liver cancer cells), HepG2 (human liver cancer cells), Hep3B (human liver cancer cells) were purchased from the Chinese Academy of Sciences cell bank (Shanghai); LO2 (human normal liver cells) and HcerEpic (human normal uterine epithelial cells) were from ATCC. • 2) Cell culture and passage: The cell culture and passage method is the same as that described in “The inhibitory effect of compounds on the OCT4 protein in tumor stem cells (CSC)”. • 3) Cell dosing treatment: The each type of cells mentioned above was digested, counted, and inoculated in each well of the 96 well cell culture plate (#3988, Corning) at a density of 5000 cells/200 μl culture medium. They were cultured in a cell culture incubator at 37° C. and 5% CO2 for 24 hours to allow the cells to fully adherent to the wall. Then, the original culture medium was replaced with complete culture medium containing gradient diluted KZT-A5 (each concentration with 3 repeated wells) as well as DMSO (#D5879, Sigma Aldrich) solvent control, and they are cultured for additional 72 hours. • 4) Pharmacodynamic test and statistics: First, the morphology of cells treated with the above compounds was observed, photographed and recorded using an inverted phase contrast microscope (X71, Olympus). Then the original culture medium was replaced with phenol red free culture medium containing CCK-8 detection reagent (#E606335, Shanghai Shenggong) respectively, and they are cultured in the incubator for additional 2 hours. Then the OD450 nm absorbance value (OD value) was measured on a multifunctional enzyme-linked immunosorbent assay (168-1130, Bio Rad). After the cells were treated with the test compound, the equations for calculating the cell survival rate or cell growth rate is: survival rate=GD value of the treated group/OD value of the control group×100%; the equations for calculating the growth inhibition rate of compounds on cell proliferation is: inhibition rate=(OD value of control group−OD value of the treated group)/OD value of control group×100%. Further, the IC50 of each compound was calculated in SPSS based on the inhibition rate. […]
With `CCC(CO)/N=C1\CCCc2c1[nH]c1ccc(C)cc21` (stereo not drawn) [AH057, reference compound], half-maximal inhibition (IC50) was put at 40.02 ± 0.08 µM.

The next assay has as its system Hep3B (human liver cancer cells). The assay is described as follows: In vitro proliferation inhibition (CCK-8), Hep3B. The note with it: Homo sapiens, test (2), average±standard deviation of three wells. Type of assay: cell-based.
Text: as §3
For the compound `CCC(CO)/N=C1\CCCc2c1[nH]c1ccc(C)cc21` (stereo not drawn) [AH057, reference compound], 18 ± 1.2 µM corresponded to half-maximal inhibition (IC50).

The test system of a further assay is LO2 (human normal liver cells). The assay is described as follows: In vitro proliferation inhibition (CCK-8), LO2. Type of assay: cell-based. The note with it: LO2, test (2), average±standard deviation of three wells. From the text:
• 1) Cell sources: HeLa (human cervical cancer cells), CaSki (human cervical cancer intestinal metastasis cells), Huh7 (human liver cancer cells), HepG2 (human liver cancer cells), Hep3B (human liver cancer cells) were purchased from the Chinese Academy of Sciences cell bank (Shanghai); LO2 (human normal liver cells) and HcerEpic (human normal uterine epithelial cells) were from ATCC. • 2) Cell culture and passage: The cell culture and passage method is the same as that described in “The inhibitory effect of compounds on the OCT4 protein in tumor stem cells (CSC)”. • 3) Cell dosing treatment: The each type of cells mentioned above was digested, counted, and inoculated in each well of the 96 well cell culture plate (#3988, Corning) at a density of 5000 cells/200 μl culture medium. They were cultured in a cell culture incubator at 37° C. and 5% CO2 for 24 hours to allow the cells to fully adherent to the wall. Then, the original culture medium was replaced with complete culture medium containing gradient diluted KZT-A5 (each concentration with 3 repeated wells) as well as DMSO (#D5879, Sigma Aldrich) solvent control, and they are cultured for additional 72 hours. • 4) Pharmacodynamic test and statistics: First, the morphology of cells treated with the above compounds was observed, photographed and recorded using an inverted phase contrast microscope (X71, Olympus). Then the original culture medium was replaced with phenol red free culture medium containing CCK-8 detection reagent (#E606335, Shanghai Shenggong) respectively, and they are cultured in the incubator for additional 2 hours. Then the OD450 nm absorbance value (OD value) was measured on a multifunctional enzyme-linked immunosorbent assay (168-1130, Bio Rad). […] Further, the IC50 of each compound was calculated in SPSS based on the inhibition rate. […]
For the compound `CCC(CO)/N=C1\CCCc2c1[nH]c1ccc(C)cc21` (stereo not drawn) [AH057, reference compound], it took 85.5 ± 2.92 µM to reach half-maximal inhibition (IC50).

The next assay relates to HeLa cells. Put plainly: Clone formation of HeLa cells, single drugs and combination. Type of assay: cell-based, human. The note with it: 700 nM KZT-A5, 100 nM SGI-1027, two weeks, compared with DMSO control, FIG. 7. The text has this: • 1) Cell source: HeLa cells were purchased from the Chinese Academy of Sciences Cell Bank (Shanghai). • 2) Cell culture and passage: The cell culture and passage method is the same as that described in “Inhibition of OCT4 protein in tumor stem cells (CSCs) by compounds”. • 3) Cell dosing treatment: The cells were inoculated into a 6-well plate containing the aforementioned culture medium at a density of 200 cells per well. They were divided into four groups, and DMSO (as blank control group), 700 nM KZT-A5 (as KZT-A5 single drug group), 100 nM SGI-1027 (as SGI-1027 single drug group), and 700 nM KZT-A5+100 nM SGI-1027 (as combination group) was added respectively. After two weeks, they were photographed, and the number of clones was counted in each group respectively.
`Cc1cc(Nc2ccc(NC(=O)c3ccc(Nc4ccnc5ccccc45)cc3)cc2)nc(N)n1` [SGI-1027, reference compound]: the “inhibition of clone formation” value is “only slightly inhibits clone formation”.
